Laboratory results published in US20100190846A1, “MICROBICIDAL AGENT AND MICROBICIDAL COMPOSITION” (priority 2006, published 2010).
≈ marks a conversion by molar mass, not a printed value.

Experiments:
Test in all cases: Agar dilution method microbicidal test
Type in all cases: cell-based
Bacillus cereus = tested on: Bacillus cereus; for Growth on agar plate: key: +: grew; −: did not grow
Procedure: (§1) As microbicidal test method for trans-p-coumaric acid, 3-hydroxypyridine, p-hydroxybenzaldehyde and vanillin, the agar dilution method was employed.
(§2) In agar dilution method, a solution in which a sample is dissolved is serially diluted several times, and each of the diluted sample solutions is mixed with agar medium to prepare plate agars having various sample concentration. Then bacteria is inoculated onto the plate agars. In cases where the sample has a microbicidal activity, the growth of the bacteria on the plates can be inhibited. The lowest concentration which can inhibit the growth of the bacteria is referred to as Minimum Inhibitory Concentration (MIC), thereby judging the degree of a microbicidal activity of the sample.
(§3) First, 400 mg of sample was dissolved in 1 mL of DMSO to prepare 400 mg/mL sample solution. Then 0.5 mL of this 400 mg/mL sample solution was diluted 2-fold to prepare 200 mg/mL sample solution. In the same manner, sample solutions of 100 mg/mL, 50.0 mg/mL, and 25.0 mg/mL were prepared. In addition, 300 mg/mL sample solution was prepared. Thereafter, 0.2 mL of these sample solutions each was mixed with 19.8 mL of BHI (Brain Heart Infusion Agar, Becton Dickinson, MD) medium, thereby preparing agar plates having the sample concentration of 4.0 mg/mL, 3.0 mg/mL, 2.0 mg/mL, 1.0 mg/mL, 0.5 mg/mL, and 0.25 mg/mL in dishes. […] Sterilized water was used for dissolving catechin, because catechin was insoluble in DMSO.
(§4) As test bacteria, 13 kinds of bacteria, i.e., Streptococcus pneumoniae, Streptococcus pyogenes, Enterococcus faecalis, Staphylococcus aureus, Escherichia coli, Salmonella sp., Yersinia enterocolitica, Vibrio parahaemolyticus, Pseudomonas aeruginosa, Bacillus cereus, Bacillus subtilis MB-32, Bacillus subtilis ATCC6633, and Candida sp., were used. These bacteria each was mixed with 2 mL of sterilized MHB^R liquid medium (Mueller Hinton Broth^R, Becton Dickinson, MD) to prepare bacterial suspension having turbidity 1 (bacterial concentration 10^8/mL). Previously, small test tubes were set into each cell of a grating and sterilized, and 1 mL of 13 bacterial suspensions were added into the small test tubes set in the grating, respectively. By using a microplanter (SAKUMA, model: MIT-P), 10 μL aliquot was collected from each test tube set in the grating and transferred to other test tube, and the transferred bacterial suspensions were diluted 100-fold (bacterial concentration 10^6/mL).
(§5) By using the microplanter, 10 μL (bacterial number […]) of this bacterial suspension was inoculated onto the plates containing the sample solution of various concentrations. The plates were incubated for 18 hours in an incubator at 37° C., and then a microbicidal activity of each compound was assessed.

Streptococcus pyogenes = tested on: Streptococcus pyogenes; for Growth on agar plate: key: +: grew; −: did not grow
Procedure: as §1, §2, §3, §4, §5

[1] = tested on: Bacillus subtilis ATCC6633; for Growth on agar plate: key: +: grew; −: did not grow
Procedure: as §1, §2, §3, §4, §5

Streptococcus pneumoniae = tested on: Streptococcus pneumoniae; for Growth on agar plate: key: +: grew; −: did not grow
Procedure: as §1, §2, §3, §4, §5

Escherichia coli = tested on: Escherichia coli; for Growth on agar plate: key: +: grew; −: did not grow
Procedure: as §1, §2, §3, §4, §5

Vibrio parahaemolyticus = tested on: Vibrio parahaemolyticus; for Growth on agar plate: key: +: grew; −: did not grow
Procedure: as §1, §2, §3, §4, §5

Enterococcus faecalis = tested on: Enterococcus faecalis; note: key: +: grew; −: did not grow
Procedure: as §1, §2, §3, §4, §5

Pseudomonas aeruginosa = tested on: Pseudomonas aeruginosa; for Growth on agar plate: key: +: grew; −: did not grow
Procedure: as §1, §2, §3, §4, §5

Bacillus subtilis MB-32 = tested on: Bacillus subtilis MB-32; for Growth on agar plate: key: +: grew; −: did not grow
Procedure: as §1, §2, §3, §4, §5

Staphylococcus aureus = tested on: Staphylococcus aureus; for Growth on agar plate: key: +: grew; −: did not grow
Procedure: as §1, §2, §3, §4, §5

Yersinia enterocolitica = tested on: Yersinia enterocolitica; for Growth on agar plate: key: +: grew; −: did not grow
Procedure: as §1, §2, §3, §4, §5

Salmonella sp. = tested on: Salmonella sp. For Growth on agar plate: key: +: grew; −: did not grow.
Procedure: as §1, §2, §3, §4, §5

Candida sp. = tested on: Candida sp. For Growth on agar plate: key: +: grew; −: did not grow.
Procedure: as §1, §2, §3, §4, §5

[2] = BHI agar, 37° C., 18 hours, read-out: MIC

O=Cc1ccc(O)cc1 [p-Hydroxybenzaldehyde, p-hydroxybenzaldehyde]
activity (in words) (Bacillus cereus): had an activity
Growth on agar plate (Bacillus cereus; 0.25 mg/mL): +
Growth on agar plate (Bacillus cereus; 0.5 mg/mL): +
Growth on agar plate (Bacillus cereus; 1.0 mg/mL): +
Growth on agar plate (Bacillus cereus; 2.0 mg/mL): +
Growth on agar plate (Bacillus cereus; 3.0 mg/mL): −
Growth on agar plate (Bacillus cereus; 4.0 mg/mL): −
MIC (Bacillus cereus; [2]): 3000 µg/mL (≈ 24.6 mM)
activity (in words) (Streptococcus pyogenes): had an activity
Growth on agar plate (Streptococcus pyogenes; 0.25 mg/mL): +
Growth on agar plate (Streptococcus pyogenes; 0.5 mg/mL): +
Growth on agar plate (Streptococcus pyogenes; 1.0 mg/mL): +
Growth on agar plate (Streptococcus pyogenes; 2.0 mg/mL): −
Growth on agar plate (Streptococcus pyogenes; 3.0 mg/mL): −
Growth on agar plate (Streptococcus pyogenes; 4.0 mg/mL): −
MIC (Streptococcus pyogenes; [2]): 2000 µg/mL (≈ 16.4 mM)
MIC ([1]; ATCC6633, Bacillus subtilis ATCC 6633, BHI agar, 37° C., 18 hours, read-out: MIC): 3000 µg/mL (≈ 24.6 mM)
activity (in words) ([1]; Bacillus subtilis ATCC6633): had an activity
Growth on agar plate ([1]; Bacillus subtilis ATCC 6633, 0.25 mg/mL): +
Growth on agar plate ([1]; Bacillus subtilis ATCC 6633, 0.5 mg/mL): +
Growth on agar plate ([1]; Bacillus subtilis ATCC 6633, 1.0 mg/mL): +
Growth on agar plate ([1]; Bacillus subtilis ATCC 6633, 2.0 mg/mL): +
Growth on agar plate ([1]; Bacillus subtilis ATCC 6633, 3.0 mg/mL): −
Growth on agar plate ([1]; Bacillus subtilis ATCC 6633, 4.0 mg/mL): −
activity (in words) (Streptococcus pneumoniae): had an activity
Growth on agar plate (Streptococcus pneumoniae; 0.25 mg/mL): +
Growth on agar plate (Streptococcus pneumoniae; 0.5 mg/mL): +
Growth on agar plate (Streptococcus pneumoniae; 1.0 mg/mL): +
Growth on agar plate (Streptococcus pneumoniae; 2.0 mg/mL): −
Growth on agar plate (Streptococcus pneumoniae; 3.0 mg/mL): −
Growth on agar plate (Streptococcus pneumoniae; 4.0 mg/mL): −
MIC (Streptococcus pneumoniae; [2]): 2000 µg/mL (≈ 16.4 mM)
activity (in words) (Escherichia coli): had an activity
Growth on agar plate (Escherichia coli; 0.25 mg/mL): +
Growth on agar plate (Escherichia coli; 0.5 mg/mL): +
Growth on agar plate (Escherichia coli; 1.0 mg/mL): +
Growth on agar plate (Escherichia coli; 2.0 mg/mL): −
Growth on agar plate (Escherichia coli; 3.0 mg/mL): −
Growth on agar plate (Escherichia coli; 4.0 mg/mL): −
MIC (Escherichia coli; [2]): 2000 µg/mL (≈ 16.4 mM)
activity (in words) (Vibrio parahaemolyticus): had an activity
Growth on agar plate (Vibrio parahaemolyticus; 0.25 mg/mL): +
Growth on agar plate (Vibrio parahaemolyticus; 0.5 mg/mL): +
Growth on agar plate (Vibrio parahaemolyticus; 1.0 mg/mL): +
Growth on agar plate (Vibrio parahaemolyticus; 2.0 mg/mL): −
Growth on agar plate (Vibrio parahaemolyticus; 3.0 mg/mL): −
Growth on agar plate (Vibrio parahaemolyticus; 4.0 mg/mL): −
MIC (Vibrio parahaemolyticus; [2]): 2000 µg/mL (≈ 16.4 mM)
Growth on agar plate (Enterococcus faecalis; 0.25 mg/mL): +
Growth on agar plate (Enterococcus faecalis; 0.5 mg/mL): +
Growth on agar plate (Enterococcus faecalis; 1.0 mg/mL): +
Growth on agar plate (Enterococcus faecalis; 2.0 mg/mL): +
Growth on agar plate (Enterococcus faecalis; 3.0 mg/mL): +
Growth on agar plate (Enterococcus faecalis; 4.0 mg/mL): +
activity (in words) (Pseudomonas aeruginosa): had an activity
Growth on agar plate (Pseudomonas aeruginosa; 0.25 mg/mL): +
Growth on agar plate (Pseudomonas aeruginosa; 0.5 mg/mL): +
Growth on agar plate (Pseudomonas aeruginosa; 1.0 mg/mL): +
Growth on agar plate (Pseudomonas aeruginosa; 2.0 mg/mL): −
Growth on agar plate (Pseudomonas aeruginosa; 3.0 mg/mL): −
Growth on agar plate (Pseudomonas aeruginosa; 4.0 mg/mL): −
MIC (Pseudomonas aeruginosa; [2]): 2000 µg/mL (≈ 16.4 mM)
activity (in words) (Bacillus subtilis MB-32): had an activity
Growth on agar plate (Bacillus subtilis MB-32; 0.25 mg/mL): +
Growth on agar plate (Bacillus subtilis MB-32; 0.5 mg/mL): +
Growth on agar plate (Bacillus subtilis MB-32; 1.0 mg/mL): +
Growth on agar plate (Bacillus subtilis MB-32; 2.0 mg/mL): +
Growth on agar plate (Bacillus subtilis MB-32; 3.0 mg/mL): +
Growth on agar plate (Bacillus subtilis MB-32; 4.0 mg/mL): −
MIC (Bacillus subtilis MB-32; MB32, BHI agar, 37° C., 18 hours, read-out: MIC): 3000 µg/mL (≈ 24.6 mM)
activity (in words) (Staphylococcus aureus): had an activity
Growth on agar plate (Staphylococcus aureus; 0.25 mg/mL): +
Growth on agar plate (Staphylococcus aureus; 0.5 mg/mL): +
Growth on agar plate (Staphylococcus aureus; 1.0 mg/mL): +
Growth on agar plate (Staphylococcus aureus; 2.0 mg/mL): +
Growth on agar plate (Staphylococcus aureus; 3.0 mg/mL): −
Growth on agar plate (Staphylococcus aureus; 4.0 mg/mL): −
MIC (Staphylococcus aureus; [2]): 3000 µg/mL (≈ 24.6 mM)
activity (in words) (Yersinia enterocolitica): strong microbicidal activity
Growth on agar plate (Yersinia enterocolitica; 0.25 mg/mL): +
Growth on agar plate (Yersinia enterocolitica; 0.5 mg/mL): −
Growth on agar plate (Yersinia enterocolitica; 1.0 mg/mL): −
Growth on agar plate (Yersinia enterocolitica; 2.0 mg/mL): −
Growth on agar plate (Yersinia enterocolitica; 3.0 mg/mL): −
Growth on agar plate (Yersinia enterocolitica; 4.0 mg/mL): −
MIC (Yersinia enterocolitica; [2]): 500 µg/mL (≈ 4.09 mM)
activity (in words) (Salmonella sp.): had an activity
Growth on agar plate (Salmonella sp.; 0.25 mg/mL): +
Growth on agar plate (Salmonella sp.; 0.5 mg/mL): +
Growth on agar plate (Salmonella sp.; 1.0 mg/mL): +
Growth on agar plate (Salmonella sp.; 2.0 mg/mL): −
Growth on agar plate (Salmonella sp.; 3.0 mg/mL): −
Growth on agar plate (Salmonella sp.; 4.0 mg/mL): −
MIC (Salmonella sp.; [2]): 2000 µg/mL (≈ 16.4 mM)
activity (in words) (Candida sp.): had an activity
Growth on agar plate (Candida sp.; 0.25 mg/mL): +
Growth on agar plate (Candida sp.; 0.5 mg/mL): +
Growth on agar plate (Candida sp.; 1.0 mg/mL): +
Growth on agar plate (Candida sp.; 2.0 mg/mL): +
Growth on agar plate (Candida sp.; 3.0 mg/mL): −
Growth on agar plate (Candida sp.; 4.0 mg/mL): −
MIC (Candida sp.; [2]): 3000 µg/mL (≈ 24.6 mM)
